molecular target: Serine/threonine-protein kinase ATR (Homo sapiens, UniProt Q13535); experiment: In Vitro Inhibitory Activity Against ATR Kinase
Description: A 50 ng/μL ATR stock solution was diluted with a kinase buffer (50 mM HEPES, 10 mM MgCl2, 2 mM DTT, 1 mM EGTA, 0.01% Tween 20), and 6 μL of 1.67×, 0.0835 ng/μL working solution was added to each well (final concentration: 0.05 ng/μL). Different compounds dissolved in DMSO were added to wells using a nanoliter pipettor, such that the final concentrations of the compounds were 1000 nM-0.24 nM and the concentrations in positive wells were 100 nM-0.024 nM (4-fold gradient, 7 concentrations in total). Meanwhile, a blank control well (containing no enzyme) and a negative control well (containing enzyme, with the vehicle DMSO added) were set. After the enzyme had reacted with the compound or vehicle for 30 min, a 5×, 50 μM ATP (final concentration: 10 μM) prepared with the kinase buffer and a 5×, 0.5 μM substrate (final concentration: 0.1 μM, U Light-poly GT) were 1:1 mixed, and the mixture was added to wells at 4 μL/well. After the plate was sealed with a sealing film and the plate was incubated at room temperature for 2 h, 5 μL of 4×, 40 mM EDTA (final concentration: 10 mM) was added to each well. After 5 min of incubation at room temperature, 5 μL of a 4×, 8 nM assay reagent (final concentration: 2 nM, Ep-anti-phospho-tyrosine antibody) was added to each well. The plate was incubated at room temperature for 1 h. Plate reading was performed on a PE instrument (excitation: 320 or 340 nm; emission: 665 nm), and four-parameter fitting and IC50 calculations were performed.

Serine/threonine-protein kinase ATR, sequence (Q13535 whole entry): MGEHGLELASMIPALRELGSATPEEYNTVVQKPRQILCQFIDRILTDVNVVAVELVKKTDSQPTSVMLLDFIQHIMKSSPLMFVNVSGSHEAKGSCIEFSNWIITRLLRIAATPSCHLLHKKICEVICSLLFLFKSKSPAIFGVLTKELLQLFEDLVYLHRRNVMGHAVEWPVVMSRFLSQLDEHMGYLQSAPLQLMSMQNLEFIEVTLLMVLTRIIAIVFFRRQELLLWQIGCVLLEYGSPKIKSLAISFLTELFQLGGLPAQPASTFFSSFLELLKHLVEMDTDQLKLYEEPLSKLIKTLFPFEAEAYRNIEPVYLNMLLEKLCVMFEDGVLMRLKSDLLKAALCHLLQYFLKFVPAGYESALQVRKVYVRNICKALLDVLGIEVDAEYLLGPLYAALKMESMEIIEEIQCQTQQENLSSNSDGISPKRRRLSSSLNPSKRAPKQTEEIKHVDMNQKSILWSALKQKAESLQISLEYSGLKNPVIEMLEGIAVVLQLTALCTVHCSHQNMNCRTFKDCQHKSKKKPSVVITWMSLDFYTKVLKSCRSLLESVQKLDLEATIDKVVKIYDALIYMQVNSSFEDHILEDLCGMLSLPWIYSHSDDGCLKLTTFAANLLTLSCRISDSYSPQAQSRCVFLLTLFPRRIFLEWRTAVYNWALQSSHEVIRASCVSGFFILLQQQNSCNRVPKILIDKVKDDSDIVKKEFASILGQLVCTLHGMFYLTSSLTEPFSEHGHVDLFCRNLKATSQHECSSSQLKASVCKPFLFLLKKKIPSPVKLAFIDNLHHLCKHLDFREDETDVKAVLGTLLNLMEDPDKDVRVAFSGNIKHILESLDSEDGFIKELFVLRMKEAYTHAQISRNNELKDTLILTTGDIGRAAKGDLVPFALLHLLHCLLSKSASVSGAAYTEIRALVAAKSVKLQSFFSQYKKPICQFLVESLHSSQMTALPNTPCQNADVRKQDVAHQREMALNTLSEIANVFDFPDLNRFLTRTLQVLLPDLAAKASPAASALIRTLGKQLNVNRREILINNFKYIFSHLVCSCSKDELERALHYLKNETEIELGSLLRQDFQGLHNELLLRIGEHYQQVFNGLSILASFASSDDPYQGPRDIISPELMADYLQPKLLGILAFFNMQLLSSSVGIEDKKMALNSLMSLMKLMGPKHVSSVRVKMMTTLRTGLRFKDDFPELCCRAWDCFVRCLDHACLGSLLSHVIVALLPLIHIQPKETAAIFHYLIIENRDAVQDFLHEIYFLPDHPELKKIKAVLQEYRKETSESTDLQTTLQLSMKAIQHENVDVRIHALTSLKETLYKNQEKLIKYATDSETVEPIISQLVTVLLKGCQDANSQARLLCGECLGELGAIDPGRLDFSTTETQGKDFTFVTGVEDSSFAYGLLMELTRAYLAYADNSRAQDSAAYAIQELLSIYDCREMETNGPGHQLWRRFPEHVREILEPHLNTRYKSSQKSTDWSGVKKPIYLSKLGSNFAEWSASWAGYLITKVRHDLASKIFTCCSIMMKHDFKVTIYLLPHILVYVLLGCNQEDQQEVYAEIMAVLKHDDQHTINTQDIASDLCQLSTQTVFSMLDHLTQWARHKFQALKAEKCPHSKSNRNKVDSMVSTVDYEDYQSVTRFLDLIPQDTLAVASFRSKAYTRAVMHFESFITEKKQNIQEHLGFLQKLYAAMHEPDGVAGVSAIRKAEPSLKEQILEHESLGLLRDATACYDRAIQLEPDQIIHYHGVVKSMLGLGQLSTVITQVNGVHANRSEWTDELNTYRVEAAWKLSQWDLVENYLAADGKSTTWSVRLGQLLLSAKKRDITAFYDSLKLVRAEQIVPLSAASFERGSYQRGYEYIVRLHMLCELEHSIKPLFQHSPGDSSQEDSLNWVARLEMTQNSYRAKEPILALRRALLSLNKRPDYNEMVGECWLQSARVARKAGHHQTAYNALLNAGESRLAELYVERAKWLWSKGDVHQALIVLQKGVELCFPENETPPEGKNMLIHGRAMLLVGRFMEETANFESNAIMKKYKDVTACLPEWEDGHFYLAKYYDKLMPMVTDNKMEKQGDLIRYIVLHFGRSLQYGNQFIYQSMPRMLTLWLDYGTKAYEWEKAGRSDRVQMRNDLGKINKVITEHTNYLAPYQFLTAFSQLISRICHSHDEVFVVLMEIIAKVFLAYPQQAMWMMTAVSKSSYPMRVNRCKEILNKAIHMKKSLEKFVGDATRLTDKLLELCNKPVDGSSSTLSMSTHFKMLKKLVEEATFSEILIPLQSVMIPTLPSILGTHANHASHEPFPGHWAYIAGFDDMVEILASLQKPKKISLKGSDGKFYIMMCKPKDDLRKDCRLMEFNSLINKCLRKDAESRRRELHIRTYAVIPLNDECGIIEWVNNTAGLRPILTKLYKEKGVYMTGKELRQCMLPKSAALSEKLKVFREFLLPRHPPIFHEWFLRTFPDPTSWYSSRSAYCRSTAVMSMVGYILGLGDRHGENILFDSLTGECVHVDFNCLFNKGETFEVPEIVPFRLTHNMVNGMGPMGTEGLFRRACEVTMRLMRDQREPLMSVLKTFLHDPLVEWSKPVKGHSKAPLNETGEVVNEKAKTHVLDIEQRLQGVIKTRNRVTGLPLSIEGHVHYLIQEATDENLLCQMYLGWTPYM

| Compound | IC50 [µM] |
| --- | --- |
| Cc1nn(-c2ccn[nH]2)c2nc(N3CCOC[C@H]3C)cc(N=S(C)(C)=O)c12 [US20250026750, Compound 20] | < 0.05 |
| C[C@@H]1COCCN1c1cc(N=S(C)(C)=O)c2c(C(F)(F)F)nn(-c3ccn[nH]3)c2n1 [US20250026750, Compound 23] | < 0.05 |
| C[C@@H]1COCCN1c1cc(N=S(C)(C)=O)c2c(CCC(F)(F)F)nn(-c3ccn[nH]3)c2n1 [US20250026750, Compound 24] | < 0.05 |
| C[C@@H]1COCCN1c1cc(N=S(C)(C)=O)c2c(C(C)(C)C)nn(-c3cc[nH]n3)c2n1 [US20250026750, Compound 25] | < 0.05 |

The next lines start with the values.

| IC50 [µM] | Compound |
| --- | --- |
| < 0.05 | C[C@@H]1COCCN1c1cc(N=S(C)(C)=O)c2cnn(-c3ccn[nH]3)c2n1 [US20250026750, Compound 1] |
| < 0.05 | C[C@@H]1COCCN1c1cc(N=S2(=O)CCC2)c2cnn(-c3ccn[nH]3)c2n1 [US20250026750, Compound 3] |
| < 0.05 | C[C@@H]1COCCN1c1cc(N=S2(=O)CCCC2)c2cnn(-c3ccn[nH]3)c2n1 [US20250026750, Compound 4] |
| < 0.05 | C[C@@H]1COCCN1c1cc(N=S2(=O)CCOCC2)c2cnn(-c3ccn[nH]3)c2n1 [US20250026750, Compound 6] |
| < 0.05 | C[C@@H]1COCCN1c1cc(N=S(C)(=O)C(C)(C)C)c2cnn(-c3ccn[nH]3)c2n1 (some centres undefined) [US20250026750, Compound 17] |

— BindingDB's records for patent US20250026750 (Chia Tai Tianqing Pharmaceutical Group, 2025)
